Data published in BindingDB's records for doi:10.1021/jm050256l (Umr 8525 Cnrs-Universit&#233, 2005).

Molecular target: T1, Glutathione reductase, mitochondrial (Homo sapiens, UniProt P00390)
T1 sequence (P00390 whole entry): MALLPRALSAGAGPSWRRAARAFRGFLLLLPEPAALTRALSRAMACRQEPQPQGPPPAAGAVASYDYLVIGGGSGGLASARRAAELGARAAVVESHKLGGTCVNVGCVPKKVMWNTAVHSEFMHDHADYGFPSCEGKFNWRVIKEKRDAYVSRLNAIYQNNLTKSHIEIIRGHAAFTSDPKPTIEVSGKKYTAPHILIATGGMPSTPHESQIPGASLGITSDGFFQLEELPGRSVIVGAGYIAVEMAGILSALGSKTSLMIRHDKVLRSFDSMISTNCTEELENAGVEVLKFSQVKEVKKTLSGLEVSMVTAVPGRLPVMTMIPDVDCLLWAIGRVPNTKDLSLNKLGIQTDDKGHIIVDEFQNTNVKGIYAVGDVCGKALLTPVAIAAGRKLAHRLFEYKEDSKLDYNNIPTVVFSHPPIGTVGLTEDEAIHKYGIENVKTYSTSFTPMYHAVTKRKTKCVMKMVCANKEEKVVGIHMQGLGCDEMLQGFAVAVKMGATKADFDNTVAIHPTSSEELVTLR
Experiment: Inhibitory concentration against human glutathione reductase

## O=C(Cc1ccc2ccc(NC(=O)C[N]3CC[NH][Pt]3([Cl])[Cl])cc2c1)NNC(=O)c1ccc([N+](=O)[O-])o1 [2-(2-Amino-ethylamino)-N-(7-{2-[N'-(5-nitro-furan-2-carbonyl)-hydrazino]-2-oxo-ethyl}-naphthalen-2-yl)-acetamide; compound with GENERIC INORGANIC NEUTRAL COMPONENT]
  IC50: 1000 nM
